For eleven compounds, IC50 results are on record in patent publication US9796704B2, “Substituted quinazolines as receptor-type kinase inhibitors” (Symphony Evolution, Inc., priority 2002, dated 2017).

pIC50: −log10 of the molar value.

Assay [1] deals with EphB4 (Homo sapiens (Human), UniProt P54760). As to the kind of experiment: EphB4 kinase inhibition, 33P phosphoryl transfer assay (radiometric). It counts as biochemical. The method, then: Phosphorylated substrate products are quantified by scintillation spectrometry.
Kinase activity and compound inhibition are investigated using one or more of the three assay formats described below. The ATP concentrations are selected near its Michaelis-Menten constant (KM) for each individual kinase. Dose-response experiments are performed at ten different inhibitor concentrations in a 384-well plate format. […] These parameters are obtained by nonlinear regression algorithm built into ActivityBase software (available from ID Business Solutions Ltd., of Guildford, Surrey, UK). ^33P Phosphoryl Transfer Assay (Radiometric)
Greiner 384-well white clear bottom high binding plates (available from Greiner Bio-One, Inc., of Longwood, Fla.) are coated with 2 μg/well of protein or peptide substrate in a 50 μL volume overnight at ambient temperature. […] The coating solution is aspirated and the plates are washed once with 50 μL of assay buffer and padded dry. Subsequently compounds and enzymes are mixed with γ ^33P-ATP (3.3 μCi/nmol) in a total volume of 20 uL in suitable assay buffers (see Table 2). For example the final EphB4 reaction solution contains 20 mM TrisHCl, pH 7.5, 10 mM MgCl2, 0.01% Triton X-100, 0.1 mM NaVO3, 5 nM EphB4 enzyme and 5 μM ATP. […] The plates are subsequently washed 6-12 times with PBST or TBS buffer.

Assay [2] has as its target EGFR (Homo sapiens (Human), UniProt P00533). As to the kind of experiment: EGFR kinase inhibition, luciferase-coupled chemiluminescent assay (LCCA). As to conditions: read-out: EGFR IC50.

EphB4, sequence (P54760 605-890): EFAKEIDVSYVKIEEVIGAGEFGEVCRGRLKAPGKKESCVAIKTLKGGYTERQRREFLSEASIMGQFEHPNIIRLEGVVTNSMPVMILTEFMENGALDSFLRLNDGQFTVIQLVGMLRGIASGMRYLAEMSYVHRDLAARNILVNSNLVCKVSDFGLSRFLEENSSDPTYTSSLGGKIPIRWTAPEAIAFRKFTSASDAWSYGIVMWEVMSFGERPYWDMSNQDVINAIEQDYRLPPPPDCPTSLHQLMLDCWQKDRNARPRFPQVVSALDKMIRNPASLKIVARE
EGFR, sequence (P00533 672-1210): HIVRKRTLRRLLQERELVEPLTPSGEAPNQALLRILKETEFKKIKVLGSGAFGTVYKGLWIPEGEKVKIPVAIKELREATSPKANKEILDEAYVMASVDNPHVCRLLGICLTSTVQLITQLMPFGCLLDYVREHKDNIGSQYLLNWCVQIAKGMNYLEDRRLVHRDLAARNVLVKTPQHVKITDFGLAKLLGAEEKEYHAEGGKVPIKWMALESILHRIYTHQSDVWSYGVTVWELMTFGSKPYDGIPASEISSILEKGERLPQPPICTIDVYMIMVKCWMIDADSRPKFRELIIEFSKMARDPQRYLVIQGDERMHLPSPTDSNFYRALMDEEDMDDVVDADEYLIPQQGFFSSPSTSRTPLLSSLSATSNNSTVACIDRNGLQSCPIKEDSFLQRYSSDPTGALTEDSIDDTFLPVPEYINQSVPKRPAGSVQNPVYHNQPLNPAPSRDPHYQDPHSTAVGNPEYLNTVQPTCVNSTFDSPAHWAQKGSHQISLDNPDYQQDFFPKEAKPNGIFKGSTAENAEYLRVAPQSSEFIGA

`COc1cc2c(Nc3ccc(Br)c(Cl)c3)ncnc2cc1O[C@H]1CO[C@@H]2C3OC(C)(C)O[C@H]3O[C@H]12` (stereo partly drawn) [Example 80, 3,6-anhydro-5-O-[4-[(4-bromo-3-chlorophenyl)amino]-6-(methyloxy)quinazolin-7-yl]-1,2-O-(1-methylethylidene)-beta-L-xylo-hexofuranose]: the pIC50 in assay [1] and in assay [2] was above 7.30 in each case.
For the compound `COc1cc2c(Nc3ccc(F)c(F)c3F)ncnc2cc1O[C@@H]1CO[C@@H]2[C@H]1OC[C@H]2F` [Example 84, 1,4:3,6-dianhydro-2-deoxy-2-fluoro-5-O-{6-(methyloxy)-4-[(2,3,4-trifluorophenyl)amino]quinazolin-7-yl}-D-iditol], the pIC50 in assay [1] and in assay [2] was above 7.30 in each case.
`COc1cc2c(Nc3cccc(F)c3F)ncnc2cc1O[C@@H]1CO[C@@H]2[C@H]1OC[C@H]2F` [Example 92, 1,4:3,6-dianhydro-2-deoxy-5-O-[4-[(2,3-difluorophenyl)amino]-6-(methyloxy)quinazolin-7-yl]-2-fluoro-D-iditol]: the pIC50 in assay [1] and in assay [2] was above 7.30 throughout.
Consider `COc1cc2c(Nc3ccc(Br)c(Cl)c3Cl)ncnc2cc1O[C@@H]1CO[C@@H]2[C@H]1OC[C@H]2F` [Example 103, 1,4:3,6-dianhydro-5-O-[4-[(4-bromo-2,3-dichlorophenyl)amino]-6-(methyloxy)quinazolin-7-yl]-2-deoxy-2-fluoro-D-iditol], for which the pIC50 in assay [1] and in assay [2] was above 7.30 throughout.
Regarding `COc1cc2c(Nc3cc(Cl)c(Cl)cc3F)ncnc2cc1O[C@@H]1CO[C@@H]2[C@H]1OC[C@H]2F` [Example 105, 1,4:3,6-dianhydro-2-deoxy-5-O-[4-[(4,5-dichloro-2-fluorophenyl)amino]-6-(methyloxy)quinazolin-7-yl]-2-fluoro-D-iditol], the pIC50 in assay [1] and in assay [2] was above 7.30 in each case.
Turning to `COc1cc2c(Nc3cccc(Cl)c3)ncnc2cc1O[C@@H]1CO[C@@H]2[C@H]1OC[C@H]2F` [Example 114, 1,4:3,6-dianhydro-5-O-[4-[(3-chlorophenyl)amino]-6-(methyloxy)quinazolin-7-yl]-2-deoxy-2-fluoro-D-iditol], the pIC50 in assay [1] and in assay [2] was above 7.30 throughout.
Take `COc1cc2c(Nc3ccc(Cl)cc3Cl)ncnc2cc1O[C@@H]1CO[C@@H]2[C@H]1OC[C@H]2F` [Example 117, 1,4:3,6-dianhydro-2-deoxy-5-O-[4-[(2,4-dichlorophenyl)amino]-6-(methyloxy)quinazolin-7-yl]-2-fluoro-D-iditol]: the pIC50 in assay [1] and in assay [2] was above 7.30 throughout.
For the compound `COc1cc2c(Nc3cccc(Br)c3)ncnc2cc1O[C@@H]1CO[C@@H]2[C@H]1OC[C@H]2F` [Example 129, 1,4:3,6-dianhydro-5-O-[4-[(3-bromophenyl)amino]-6-(methyloxy)quinazolin-7-yl]-2-deoxy-2-fluoro-D-iditol], the pIC50 in assay [1] and in assay [2] was above 7.30 each time.
Regarding `CCN1CCC[C@H]1c1nc(COc2cc3ncnc(Nc4ccc(Cl)c(Cl)c4)c3cc2OC)cs1` [Example 256, N-(3,4-dichlorophenyl)-7-[({2-[(2S)-1-ethylpyrrolidin-2-yl]-1,3-thiazol-4-yl}methyl)oxy]-6-(methyloxy)quinazolin-4-amine], the pIC50 (as a rule, the negative decadic logarithm of the IC50, by convention in mol/L) in assay [2] is above 7.30.
The same measure, in the same setting: in the case of `C=CCCCCN1CCOC(COc2cc3ncnc(Nc4ccc(Cl)c(Cl)c4)c3cc2OC)C1` (stereo not shown) [Example 274, N-(3,4-dichlorophenyl)-7-{[(4-hex-5-en-1-ylmorpholin-2-yl)methyl]oxy}-6-(methyloxy)quinazolin-4-amine] it was above 7.30; in that of `COC(=O)CCN1CCOC(COc2cc3ncnc(Nc4ccc(Cl)c(Cl)c4)c3cc2OC)C1` (stereo not shown) [Example 276, methyl 3-[2-({[4-[(3,4-dichlorophenyl)amino]-6-(methyloxy)quinazolin-7-yl]oxy}methyl)morpholin-4-yl]propanoate], above 7.30.
